Assay results: US12076305B2, “Compositions comprising a conjugate of quinic acid with caffeic acid, cosmetic and therapeutic uses” (CALSCIENCE INTERNATIONAL LTD, priority 2013, dated 2024)

Key:
p16 = assay: Taqman Real Time-PCR expression of p16 in HFFs with/without H2O2 stress-induced premature senescence; format: cell-based, Human; details: for ddct (1.275) (P16) / Relative Expression of P16 / dCt (P16) / P16 (Ct): 1/1000 dilution; for dCt (P16): vs HPRT
Procedure: (§1) The following results shown in FIGS. 2 to 7 relate to the analysis of Senescence tests on compound 2066 (1,5-dicaffeoylquinic acid or 1,5-DCQA). The experiments were conducted using Human Foreskin Fibroblasts (HFFs).
(§2) In the following experiments, HFFs were challenged for a period of two hours with 150 μM hydrogen peroxide (H2O2), to stimulate premature senescence in the presence and absence of 1,5-Dicaffeoylquinic acid (1/1000 dilution), and subsequently assayed by Taqman Real Time-PCR for the expression of key senescence associated genes.
(§3) The results shown in Table 2 and FIGS. 2 to 7 were generated using the polymerase chain reaction (PCR), wherein the dCt and ddCT values are results used in statistical analysis. The abbreviation dCt relates to “delta cycle threshold” and the abbreviation ddCt relates to “delta delta cycle threshold”. In these experiments, HPRT (hypoxanthine phosphoribosyltransferase, a protein from the HPRT-1 gene) was used as a control.

Sirtuin 3 (SIRT3) = assay: Taqman Real Time-PCR expression of Sirtuin 3 in HFFs with/without H2O2 stress; format: cell-based, Human; details: for ddct (−2.079) (SIRT3) / Relative Expression of SIRT3 / dCt (SIRT3) / SIRT3 (Ct): 1/1000 dilution; for dCt (SIRT3): vs HPRT
Procedure: as §1, §2
(§4) These genes are involved in cell cycle regulation and mitochondrial stress responses. Challenge with a near lethal level of oxidant stress typically induces an increase in SIRT2 and decrease in SIRT3 expression. […] This is indicative of each having a potential for stimulating cell proliferation in the absence of oxidant challenge.
as §3

p65 = assay: Western blot of LNCaP cell extracts probed for p65; format: cell-based; details: LNCaP cells; 24 hours; 0.1, 1, 3, 10, 30, 100 μM
Procedure: (§5) Lanes 1 and 2 of the Western blot show the expression levels Hela control lysates comprising TNF-alpha (TNFα), in stimulated and unstimulated conditions. Lanes 3 and 4 show the results of LNCaP cell extracts, in stimulated and unstimulated conditions. In this case, the vehicle used is ethanol. Lanes 5 to 10 show the results of LNCaP cell extracts incubated for 24 hours in 0.1, 1, 3, 10, 30, 100 μM of 1,5-DCQA, respectively. Tubulin (50kD) was used as a loading control.

MMP-9 = assay: Western blot of LNCaP cell extracts probed for MMP-9; format: cell-based; details: LNCaP cells; 24 hours; at 0.1 μM to 100 μM
Procedure: as §5

Pp65 (ser 536) = assay: Western blot of LNCaP cell extracts probed for Pp65 (ser 536); format: cell-based; details: LNCaP cells; 24 hours; 0.1, 1, 3, 10, 30, 100 μM
Procedure: as §5

XRCC5 = assay: Taqman Real Time-PCR expression of XRCC5 in HFFs with/without H2O2 stress; format: cell-based, Human; details: for ddct (−1.292) (XRCC5) / Relative Expression of XRCC5 / dCt (XRCC5) / XRCC5 (Ct): 1/1000 dilution; for dCt (XRCC5): vs HPRT
Procedure: as §1, §2
XRCC5 is a double strand break repair protein.
as §3

[1] = tested on: Human Foreskin Fibroblasts (HFFs); assay: WST-1 Cell Proliferation Assay in HFFs; format: cell-based; details: 1/1000 and 2/1000 dilutions
Text: The WST-1 Cell Proliferation Assay provides a sensitive and accurate assay for cell proliferation and cytotoxicity (cell viability). The WST assay is based on the cleavage of the tetrazolium salt WST-1 to formazan by cellular mitochondrial dehydrogenases. Expansion in the number of viable cells results in an increase in the overall activity of the mitochondrial dehydrogenases in the sample. The augmentation in enzyme activity results in an increase in the amount of formazan dye formed. The formazan dye produced by viable cells was quantified by a multi-well spectrophotometer by measuring the absorbance of the dye solution at 440 nm. The compound provided was tested in the WST assay over a range of dilutions. […] The results of the assay show the standard deviation (SD) for 1,5-DCQA (2066) and the control, and the mean values for 1,5-DCQA (2066) and the control.

p21 = assay: Taqman Real Time-PCR expression of p21 in HFFs with/without H2O2 stress; format: cell-based, Human; details: for ddct (−3.761) (P21) / Relative Expression of P21 / dCt (P21) / P21 (Ct): 1/1000 dilution; for dCt (P21): vs HPRT
Procedure: as §1, §2, §3

hPOT1 = assay: Taqman Real Time-PCR expression of hPOT1 in HFFs with/without H2O2 stress; format: cell-based, Human; details: for ddct (−1.835) (hPOT1) / Relative Expression of hPOT1 / dct (hPOT1) / HPOT1 (Ct): 1/1000 dilution; for dct (hPOT1): vs HPRT
Procedure: as §1, §2
These findings are supported by an analysis of the Protection of Telomeres gene (POT 1).
as §3

Sirtuin 2 (SIRT2) = assay: Taqman Real Time-PCR expression of Sirtuin 2 in HFFs with/without H2O2 stress; format: cell-based, Human; details: for ddct (−0.016) (SIRT2) / Relative Expression of SIRT2 / dCt (SIRT2) / SIRT2 (Ct): 1/1000 dilution; for dCt (SIRT2): vs HPRT
Procedure: as §1, §2, §4, §3

[2] = & stress (150 μM H2O2, two hours)
[3] = HFFs, & stress (150 μM H2O2, two hours)

- induction of DNA breaks (from XRCC5 expression) (XRCC5): does not induce DNA breaks
Compound: O=C(/C=C/c1ccc(O)c(O)c1)O[C@@H]1C[C@](OC(=O)/C=C/c2ccc(O)c(O)c2)(C(=O)O)C[C@@H](O)[C@H]1O [1,5-DCQA, 1,5-dicaffeoylquinic acid]
- protection of p16 expression from oxidant challenge (p16; 150 μM H2O2): excellent protection from oxidant challenge
- ddct (1.275) (P16) (p16; & stress (150 μM H2O2)): −0.519
- Relative Expression of P16 (p16; & stress (150 μM H2O2), media = 1.000, stress alone 3.151): 1.433
- dCt (P16) (p16; & stress (150 μM H2O2)): 0.756
- P16 (Ct) (p16; [2]): 28.09
- P16 (Ct) (p16; no stress): 27.66
- ddct (1.275) (P16) (p16; no stress): 0.050
- Relative Expression of P16 (p16; no stress, media = 1.000): 0.966
- dCt (P16) (p16; no stress): 1.325
- effect on p16 expression in untreated cells (p16; no H2O2): no stress effect
- ddct (−2.079) (SIRT3) (Sirtuin 3 (SIRT3); HFFs, & stress (150 μM H2O2)): −0.120
- Relative Expression of SIRT3 (Sirtuin 3 (SIRT3); HFFs, & stress (150 μM H2O2), media = 1.000, stress alone 0.794): 1.086
- dCt (SIRT3) (Sirtuin 3 (SIRT3); HFFs, & stress (150 μM H2O2)): 1.959
- SIRT3 (Ct) (Sirtuin 3 (SIRT3); [3]): 29.3
- SIRT3 (Ct) (Sirtuin 3 (SIRT3); HFFs, no stress): 28.56
- ddct (−2.079) (SIRT3) (Sirtuin 3 (SIRT3); HFFs, no stress): 0.148
- Relative Expression of SIRT3 (Sirtuin 3 (SIRT3); HFFs, no stress, media = 1.000): 0.903
- dCt (SIRT3) (Sirtuin 3 (SIRT3); HFFs, no stress): 2.227
- change in SIRT3 expression (Sirtuin 3 (SIRT3); HFFs, following oxidant challenge): increase
- up regulation of SIRT3 expression (Sirtuin 3 (SIRT3); senescent fibroblasts): approximately 36%
- inhibition of the expression of p65 (p65): does not inhibit
- inhibition of MMP-9 (MMP-9): clearly demonstrated
- inhibition of the phosphorylation of p65 (Pp65 (ser 536)): does inhibit
- ddct (−1.292) (XRCC5) (XRCC5; & stress (150 μM H2O2)): −0.141
- Relative Expression of XRCC5 (XRCC5; & stress (150 μM H2O2), media = 1.000, stress alone 2.237): 1.103
- dCt (XRCC5) (XRCC5; & stress (150 μM H2O2)): −1.433
- XRCC5 (Ct) (XRCC5; [2]): 25.9
- XRCC5 (Ct) (XRCC5; no stress): 25.48
- ddct (−1.292) (XRCC5) (XRCC5; no stress): 0.444
- Relative Expression of XRCC5 (XRCC5; no stress, media = 1.000): 0.735
- dCt (XRCC5) (XRCC5; no stress): −0.848
- expression of XRCC5 in comparison with the control data set (XRCC5; with and without 150 μM H2O2): substantially unaltered
- cell viability (WST-1) [1]: beneficial to cell viability
- p21 expression levels following stress (p21; 150 μM H2O2): substantially unchanged
- ddct (−3.761) (P21) (p21; & stress (150 μM H2O2)): −2.263
- Relative Expression of P21 (p21; & stress (150 μM H2O2), media = 1.000, stress alone 4.519): 4.801
- dCt (P21) (p21; & stress (150 μM H2O2)): −6.024
- P21 (Ct) (p21; [2]): 21.31
- P21 (Ct) (p21; no stress): 22.4
- ddct (−3.761) (P21) (p21; no stress): −0.167
- Relative Expression of P21 (p21; no stress, media = 1.000): 1.122
- dCt (P21) (p21; no stress): −3.928
- effect on hPOT1 expression against oxidant challenge (hPOT1; 150 μM H2O2): protective effect
- ddct (−1.835) (hPOT1) (hPOT1; & stress (150 μM H2O2)): 0.405
- Relative Expression of hPOT1 (hPOT1; & stress (150 μM H2O2), media = 1.000, stress alone 1.625): 0.755
- dct (hPOT1) (hPOT1; & stress (150 μM H2O2)): 2.240
- HPOT1 (Ct) (hPOT1; [2]): 29.5758
- HPOT1 (Ct) (hPOT1; no stress): 29.47
- ddct (−1.835) (hPOT1) (hPOT1; no stress): 1.306
- Relative Expression of hPOT1 (hPOT1; no stress, media = 1.000): 0.404
- dct (hPOT1) (hPOT1; no stress): 3.141
- ddct (−0.016) (SIRT2) (Sirtuin 2 (SIRT2); HFFs, & stress (150 μM H2O2)): 0.371
- Relative Expression of SIRT2 (Sirtuin 2 (SIRT2); HFFs, & stress (150 μM H2O2), media = 1.000, stress alone 0.762): 0.773
- dCt (SIRT2) (Sirtuin 2 (SIRT2); HFFs, & stress (150 μM H2O2)): 0.387
- SIRT2 (Ct) (Sirtuin 2 (SIRT2); [3]): 27.72
- SIRT2 (Ct) (Sirtuin 2 (SIRT2); HFFs, no stress): 27.16
- ddct (−0.016) (SIRT2) (Sirtuin 2 (SIRT2); HFFs, no stress): 0.817
- Relative Expression of SIRT2 (Sirtuin 2 (SIRT2); HFFs, no stress, media = 1.000): 0.568
- dCt (SIRT2) (Sirtuin 2 (SIRT2); HFFs, no stress): 0.833
- change in SIRT2 expression (Sirtuin 2 (SIRT2); HFFs, without stress): significant decrease
- down regulation of SIRT2 expression (Sirtuin 2 (SIRT2); normal fibroblasts): approximately 52%
